Results on one compound are retold here after patent US9828351B2, “Enzyme interacting agents” (MONASH UNIVERSITY, priority 2014, dated 2017).

In assay [1] the target is T1, recombinant human SphK2 (Homo sapiens, UniProt Q9NRA0).
T1 construct: purchased Johnson and Johnson
T1 sequence (Q9NRA0 1-654): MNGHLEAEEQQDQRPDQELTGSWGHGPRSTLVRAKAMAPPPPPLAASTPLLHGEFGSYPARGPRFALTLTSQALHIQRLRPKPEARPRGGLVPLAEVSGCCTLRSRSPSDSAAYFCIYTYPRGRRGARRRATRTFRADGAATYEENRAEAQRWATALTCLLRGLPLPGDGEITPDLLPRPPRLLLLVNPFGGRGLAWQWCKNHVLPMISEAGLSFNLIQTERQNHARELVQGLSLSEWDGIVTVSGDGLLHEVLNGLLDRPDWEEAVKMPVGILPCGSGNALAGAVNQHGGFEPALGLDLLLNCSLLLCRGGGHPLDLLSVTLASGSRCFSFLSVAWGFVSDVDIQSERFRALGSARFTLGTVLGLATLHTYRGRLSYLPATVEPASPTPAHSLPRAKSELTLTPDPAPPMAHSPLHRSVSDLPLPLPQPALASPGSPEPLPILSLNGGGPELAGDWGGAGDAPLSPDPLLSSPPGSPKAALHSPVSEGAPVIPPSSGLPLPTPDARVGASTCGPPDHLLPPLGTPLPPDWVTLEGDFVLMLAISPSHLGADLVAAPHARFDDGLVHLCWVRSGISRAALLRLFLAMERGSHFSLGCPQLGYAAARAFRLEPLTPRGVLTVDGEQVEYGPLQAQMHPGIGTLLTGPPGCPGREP
Put plainly: SphK2 activity assay (32P-labelled S1P production). In kind it is biochemical. Particulars: 10 μM compound; % of activity compared to control (DMSO vehicle only); read-out: SphK2% actvity at 10 μm. On the procedure:
(§1) The SphK assays employed, measure SphK activity through the production of ^32P-labelled S1P following the addition of exogenous Sph and [γ^32P] ATP.
(§2) Activities of SphK1 and SphK2 were determined using identical assay conditions with the exception that SphK1 assays used 3 ng/assay recombinant his tagged human SphK1 (made in the lab in a baculovirus system using insect cells), while SphK2 assays used 30 ng/assay recombinant human SphK2 (purchased by Johnson and Johnson).
(§3) Compounds were dissolved in DMSO at 10 mM, the mixture was vortexed (and sonicated if necessary). Stock solutions were kept at 4° C. until used.
(§4) Aliquots were made containing 100 μM drug compound. These aliquots were then diluted in assay buffer: 100 mM tris/HCl pH 7.4, 100 mM NaCl, 1 mM sodium orthovanadate, 10 mM NaF to make up a 10 μM solution.
(§5) Recombinant enzyme was diluted in assay buffer (above) to make up a final concentration of 0.03 ng/μL (SphK1) or 0.33 ng/μL (SphK2).
(§6) 40 μL recombinant enzyme was added to an Eppendorf® Safe-Lock® microcentrifuge tube. This was followed by the addition of drug compound from prepared aliquots, before adding ATP, [γ^32P]ATP and Sph. Note: ATP stock is made up in 1M Tris pH 7.4 and 200 mM MgCl2. This allows ATP to complex with Mg and be available as a substrate.
(§7) The rest of the reaction mixture was then added to the enzyme sample (Table 1). All reactions were performed as triplicates.
(§8) Reaction mixture was prepared with sufficient volume to assay all of the required samples. To do this, each of the volumes shown was multiplied by n+1, where n is the number of samples to be assayed. Assay buffer used is made up of 100 mM tris/HCl pH 7.4, 100 mM NaCl, 1 mM sodium orthovanadate and 10 mM NaF.
(§9) The mixture was then incubated at 37° C. for 20 min (SphK1)/45 min (SphK2).
(§10) To the 100 μL assay mixture, add 270 μl of chloroform/methanol/conc. HCl (100:200:1).
(§11) 20 μL of 5 M KCl was then added to the assay mixture.
(§12) 70 μL of chloroform was added to create phase separation. The solution was vortexed to mix well.
(§13) The solution was then centrifuged for 5 min at 13,000×g to fully separate the phases.
(§14) The upper aqueous/methanol phase was separated by aspiration.
(§15) 50 μL of the remaining lower chloroform phase […] was applied onto the TLC plate by repeatedly spotting a few microliters of liquid (<5 mm diameter circle) between each sample spot with the pipette tip. The liquid was then allowed to absorb into the plate before drying with a stream of air.
(§16) The TLC plate was developed in a glass TLC developing tank with 1-butanol/ethanol/glacial acetic acid/H2O (8:2:1:2) until the mobile phase is within 1 cm of the top of the TLC plate.
(§17) The TLC plate was then exposed to a storage phosphor screen overnight. Storage phosphor screens work by capturing images produced by ionising radiation (e.g. ^32P). The phosphorimager stimulates the screen which uses lasers to convert the latent signal to light. Light is proportional to the amount of radioactivity in the sample. The image is then quantified using standard quantification software (ImageQuant™). Whatman paper with the assay mixture dilutions, was included to assist quantification of the phosphor signal.
(§18) Once the storage phosphor screen was read using the phosphorimager, S1P spots, which have an Rf of 0.7 with the mobile phase employed, were quantified.
(§19) The S1P spot intensity can be converted to the amount of phosphate transferred/min/mg protein.

Assay [2] addresses T2, recombinant his tagged human SphK1 (Homo sapiens, UniProt Q9NYA1).
T2 construct: His tag; made in house; host or cells: insect cells (baculovirus system)
Briefly: SphK1 activity assay (32P-labelled S1P production). Format: biochemical. The settings on record: 10 μM compound; % of activity compared to control (DMSO vehicle only). As for the experimental part:
as §1, §2, §3, §4, §5, §6, §7, §8, §9, §10, §11, §12, §13, §14, §15, §16, §17, §18, §19

T2 sequence (Q9NYA1 whole entry): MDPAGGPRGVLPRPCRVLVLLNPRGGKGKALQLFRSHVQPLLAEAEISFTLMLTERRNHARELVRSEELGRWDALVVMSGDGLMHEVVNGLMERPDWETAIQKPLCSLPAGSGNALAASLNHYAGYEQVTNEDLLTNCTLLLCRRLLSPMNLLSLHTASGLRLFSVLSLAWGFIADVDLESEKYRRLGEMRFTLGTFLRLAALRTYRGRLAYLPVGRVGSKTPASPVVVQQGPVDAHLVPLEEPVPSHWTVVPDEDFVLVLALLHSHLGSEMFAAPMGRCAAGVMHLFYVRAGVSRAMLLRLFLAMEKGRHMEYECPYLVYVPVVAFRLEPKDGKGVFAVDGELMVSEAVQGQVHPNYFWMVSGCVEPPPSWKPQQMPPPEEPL

With `Oc1ccc(Nc2nc(-c3ccc(Cl)cc3)cs2)cc1` [SKI-II, reference compound], the remaining activity at 10 µM in assay [1] is 80 to 100%. Besides, in assay [2], the activity at 10 µM lay within 50 to 80%.
